Experiments:
Test in all cases: relative viability (nuclei count vs DMSO), 5 days (fraction); higher = more cells survive
HCC-15 = test system: HCC-15
Method in brief: (§1)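 After 5 days of treatment, lung cancer cells in 1536-well plates were fixed and stained in a single step (final 0.05% Triton X-100, 1% formaldehyde, 1 ug/ml Hoechst) and their nuclei counted on 4× images. Treatment had been applied by pin tool the day after seeding as one drug alone or as a fixed anchor-drug dose with five library-drug doses (not always all listed) in √10 steps. Relative viability is the nuclei count of treated wells divided by that of vehicle wells, and values are medians of duplicate plates.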

NCI-H727 = test system: NCI-H727
Method in brief: as §1

NCI-H322M = test system: NCI-H322M
Method in brief: as §1

NCI-H838 = test system: NCI-H838
Method in brief: as §1

NCI-H460 = test system: NCI-H460
Method in brief: as §1

BEN = test system: BEN
Method in brief: as §1

NCI-H1651 = test system: NCI-H1651
Method in brief: as §1

NCI-H358 = test system: NCI-H358
Method in brief: as §1

EMC-BAC-2 = test system: EMC-BAC-2
Method in brief: as §1

LK-2 = test system: LK-2
Method in brief: as §1

NCI-H522 = test system: NCI-H522
Method in brief: as §1

SW 900 = test system: SW 900
Method in brief: as §1

NCI-H2023 = test system: NCI-H2023
Method in brief: as §1

PC-3 [JPC-3] = test system: PC-3 [JPC-3]
Method in brief: as §1

ABC-1 = test system: ABC-1
Method in brief: as §1

COR-L 105 = test system: COR-L 105
Method in brief: as §1

EKVX = test system: EKVX
Method in brief: as §1

LU99A = test system: LU99A
Method in brief: as §1

HCC-44 = test system: HCC-44
Method in brief: as §1

NCI-H520 = test system: NCI-H520
Method in brief: as §1

201T = test system: 201T
Method in brief: as §1

CN1CCN(CCOc2cc(OC3CCOCC3)c3c(Nc4c(Cl)ccc5c4OCO5)ncnc3c2)CC1 [Saracatinib] + Nc1ncn([C@H]2C[C@H](O)[C@@H](CO)O2)c(=O)n1 [Decitabine] (partner 2 µM)
relative viability (HCC-15; first compound 0.02 µM): 0.73
relative viability (HCC-15; first compound 0.2 µM): 0.62
relative viability (HCC-15; first compound 0.6325 µM): 0.605
relative viability (HCC-15; first compound 2 µM): 0.557
relative viability (NCI-H727; first compound 0.02 µM): 0.917
relative viability (NCI-H727; first compound 0.2 µM): 0.894
relative viability (NCI-H727; first compound 0.6325 µM): 0.992
relative viability (NCI-H727; first compound 2 µM): 0.712
relative viability (NCI-H322M; first compound 0.02 µM): 0.79
relative viability (NCI-H322M; first compound 0.2 µM): 0.473
relative viability (NCI-H322M; first compound 0.6325 µM): 0.659
relative viability (NCI-H322M; first compound 2 µM): 0.409
relative viability (NCI-H838; first compound 0.02 µM): 0.45
relative viability (NCI-H838; first compound 0.2 µM): 0.417
relative viability (NCI-H838; first compound 0.6325 µM): 0.467
relative viability (NCI-H838; first compound 2 µM): 0.411
relative viability (NCI-H460; first compound 0.02 µM): 0.457
relative viability (NCI-H460; first compound 0.2 µM): 0.242
relative viability (NCI-H460; first compound 0.6325 µM): 0.423
relative viability (NCI-H460; first compound 2 µM): 0.32
relative viability (BEN; first compound 0.02 µM): 0.834
relative viability (BEN; first compound 0.2 µM): 0.778
relative viability (BEN; first compound 0.6325 µM): 0.747
relative viability (BEN; first compound 2 µM): 0.628
relative viability (NCI-H1651; first compound 0.02 µM): 0.734
relative viability (NCI-H1651; first compound 0.2 µM): 0.375
relative viability (NCI-H1651; first compound 0.6325 µM): 0.667
relative viability (NCI-H1651; first compound 2 µM): 0.626
relative viability (NCI-H358; first compound 0.02 µM): 0.224
relative viability (NCI-H358; first compound 0.2 µM): 0.198
relative viability (NCI-H358; first compound 0.6325 µM): 0.179
relative viability (NCI-H358; first compound 2 µM): 0.146
relative viability (EMC-BAC-2; first compound 0.02 µM): 1.05
relative viability (EMC-BAC-2; first compound 0.2 µM): 0.922
relative viability (EMC-BAC-2; first compound 0.6325 µM): 1.02
relative viability (EMC-BAC-2; first compound 2 µM): 0.91
relative viability (LK-2; first compound 0.02 µM): 0.337
relative viability (LK-2; first compound 0.2 µM): 0.23
relative viability (LK-2; first compound 0.6325 µM): 0.172
relative viability (LK-2; first compound 2 µM): 0.201
relative viability (NCI-H522; first compound 0.02 µM): 0.737
relative viability (NCI-H522; first compound 0.2 µM): 0.665
relative viability (NCI-H522; first compound 0.6325 µM): 0.705
relative viability (NCI-H522; first compound 2 µM): 0.627
relative viability (SW 900; first compound 0.02 µM): 0.544
relative viability (SW 900; first compound 0.2 µM): 0.384
relative viability (SW 900; first compound 0.6325 µM): 0.399
relative viability (SW 900; first compound 2 µM): 0.635
relative viability (NCI-H2023; first compound 0.02 µM): 0.245
relative viability (NCI-H2023; first compound 0.2 µM): 0.176
relative viability (NCI-H2023; first compound 0.6325 µM): 0.204
relative viability (NCI-H2023; first compound 2 µM): 0.222
relative viability (PC-3 [JPC-3]; first compound 0.02 µM): 0.824
relative viability (PC-3 [JPC-3]; first compound 0.2 µM): 0.711
relative viability (PC-3 [JPC-3]; first compound 0.6325 µM): 0.695
relative viability (PC-3 [JPC-3]; first compound 2 µM): 0.555
relative viability (ABC-1; first compound 0.02 µM): 1.01
relative viability (ABC-1; first compound 0.2 µM): 1.04
relative viability (ABC-1; first compound 0.6325 µM): 1.06
relative viability (ABC-1; first compound 2 µM): 1.02
relative viability (COR-L 105; first compound 0.02 µM): 0.719
relative viability (COR-L 105; first compound 0.2 µM): 0.485
relative viability (COR-L 105; first compound 0.6325 µM): 0.635
relative viability (COR-L 105; first compound 2 µM): 0.458
relative viability (EKVX; first compound 0.02 µM): 0.346
relative viability (EKVX; first compound 0.6325 µM): 0.323
relative viability (EKVX; first compound 2 µM): 0.211
relative viability (LU99A; first compound 0.02 µM): 0.857
relative viability (LU99A; first compound 0.2 µM): 0.807
relative viability (LU99A; first compound 0.6325 µM): 0.678
relative viability (LU99A; first compound 2 µM): 0.658
relative viability (HCC-44; first compound 0.02 µM): 0.964
relative viability (HCC-44; first compound 0.2 µM): 0.854
relative viability (HCC-44; first compound 0.6325 µM): 0.994
relative viability (HCC-44; first compound 2 µM): 0.94
relative viability (NCI-H520; first compound 0.02 µM): 0.544
relative viability (NCI-H520; first compound 0.2 µM): 0.499
relative viability (NCI-H520; first compound 0.6325 µM): 0.434
relative viability (NCI-H520; first compound 2 µM): 0.346
relative viability (201T; first compound 0.02 µM): 0.832
relative viability (201T; first compound 0.2 µM): 0.644
relative viability (201T; first compound 0.6325 µM): 0.75
relative viability (201T; first compound 2 µM): 0.71

Reference: the supplement of paper PMC10307832
